Data published in patent US20240150321A1, “PYRAZOLYLSULFONAMIDE COMPOUNDS AND THEIR USE IN THERAPY” (HOTSPOT THERAPEUTICS, INC., priority 2022, published 2024).
pIC50: −log10 of the molar value. Read-outs that look alike come from different tables or passages of the source.

How the values were obtained:
[1] = tested on: NF-kB reporter in Jurkat cells; assay: NF-kB reporter assay in Jurkat cells stimulated with aCD3/aCD28/PMA; type: cell-based; conditions: read-out: NF-kB Reporter Assay IC50
Method in brief: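 Jurkat cells (25,000/well, serum-free RPMI) were pre-incubated 1 h at 37° C with serially diluted compound, then stimulated 4 h with aCD3/aCD28/PMA at final […]. NF-kB reporter activity was read by One-Glo luminescence; IC50 values reported.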

[2] = target: Avi-tagged FL MALT-1 (Homo sapiens (Human), UniProt Q9UDY8); assay: MALT-1 Fluorogenic Peptide Cleavage Assay (MALT1 inhibition assay); type: biochemical; conditions: Ac-LRSR-AMC peptide substrate, 30 min pre-incubation, 90 min reaction at room temperature
Method in brief: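 Full-length Avi-tagged human MALT-1 (40 nM working stock) pre-incubated 30 min at RT with compound in 25 mM HEPES pH 6.89, 660 mM sodium citrate, 1 mM TCEP, […], 0.05% CHAPS, 2% DMSO. Ac-LRSR-AMC added at Km (50 μM working stock) or 10×Km (280 μM working stock); 90 min at RT, AMC fluorescence (ex 342/em 441 nm), IC50 from % inhibition curves.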

[3] = Homo sapiens, Jurkat cells, 1 hr compound pre-incubation, aCD3/aCD28/PMA stimulation 4 hr, One-Glo readout

Chain of Avi-tagged FL MALT-1 (Q9UDY8 whole entry): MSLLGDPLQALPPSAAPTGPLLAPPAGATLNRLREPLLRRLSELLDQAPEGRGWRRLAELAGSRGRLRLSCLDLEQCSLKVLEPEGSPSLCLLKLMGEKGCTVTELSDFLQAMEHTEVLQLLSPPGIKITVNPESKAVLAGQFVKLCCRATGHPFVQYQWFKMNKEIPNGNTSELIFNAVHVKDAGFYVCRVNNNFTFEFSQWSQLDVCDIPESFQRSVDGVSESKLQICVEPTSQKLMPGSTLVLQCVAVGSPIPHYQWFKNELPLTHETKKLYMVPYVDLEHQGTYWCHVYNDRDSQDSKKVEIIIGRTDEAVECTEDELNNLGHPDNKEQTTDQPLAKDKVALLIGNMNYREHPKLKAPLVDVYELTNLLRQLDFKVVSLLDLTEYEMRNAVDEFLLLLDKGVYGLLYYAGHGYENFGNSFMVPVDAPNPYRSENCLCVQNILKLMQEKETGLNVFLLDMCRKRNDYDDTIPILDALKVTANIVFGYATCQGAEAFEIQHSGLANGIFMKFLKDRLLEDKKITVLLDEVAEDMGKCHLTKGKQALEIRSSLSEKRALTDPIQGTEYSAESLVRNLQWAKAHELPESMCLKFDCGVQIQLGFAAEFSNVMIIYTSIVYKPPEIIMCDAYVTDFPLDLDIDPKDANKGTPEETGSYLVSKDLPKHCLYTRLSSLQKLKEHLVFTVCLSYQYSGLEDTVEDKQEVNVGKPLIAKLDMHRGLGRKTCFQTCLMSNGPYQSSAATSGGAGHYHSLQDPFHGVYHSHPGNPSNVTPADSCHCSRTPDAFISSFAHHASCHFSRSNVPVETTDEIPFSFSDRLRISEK

pIC50 [1, 3]	pIC50 [2]	pIC50 ([1]; Jurkat cells, 1 hr compound pre-incubation, aCD3/aCD28/PMA stimulation 4 hr, One-Glo readout)	SMILES	pIC50 ([1]; Homo sapiens, Jurkat)
> 6.40	< 5.60		COC[C@@](C)(F)c1ccnc(-n2cc(S(=O)(=O)Nc3cccc4cnn(C)c34)cn2)c1 [Compound I-331, (S)-1-(4-(2-fluoro-1-methoxypropan-2-yl)pyridin-2-yl)-N-(1-methyl-1H-indazol-7-yl)-1H-pyrazole-4-sulfonamide]	
> 6.40	6.00 to 6.40		Cc1c(S(=O)(=O)Nc2cccc3cnn(C)c23)cnn1-c1cc(C(F)(F)F)ccn1 [Compound I-137, 5-methyl-N-(1-methyl-1H-indazol-7-yl)-1-(4-(trifluoromethyl)pyridin-2-yl)-1H-pyrazole-4-sulfonamide]	
> 6.40	< 5.60		CC1CC(F)(c2ccnc(-n3cc(S(=O)(=O)Nc4cccc5cnn(C)c45)cn3)c2)C1 (stereo not shown) [Compound I-394]	
5.60 to 6.00	< 5.60		COc1ccc2nnn(C)c2c1NS(=O)(=O)c1cnn(-c2ccnc(C(F)(F)F)c2)c1 [Compound I-52]	
> 6.40	< 5.60		COc1ncc2cnn(C)c2c1NS(=O)(=O)c1cnn(-c2cc(N3CCC(C)(C)C3)ccn2)c1 [Compound I-425]	
	≥ 6.40	> 6.40	COc1ccc2cnn(C)c2c1NS(=O)(=O)c1cnn(-c2cc(C3(F)CC(F)C3)ccn2)c1 (single isomer, unassigned) [Compound I-378, 1-(4-(1,3-difluorocyclobutyl)pyridin-2-yl)-N-(6-methoxy-1-methyl-1H-indazol-7-yl)-1H-pyrazole-4-sulfonamide]	
6.00 to 6.40	≥ 6.40		CCc1ccc2cnn(C)c2c1NS(=O)(=O)c1cnn(-c2ccnc(C)c2)c1 [Compound I-31, N-(6-Ethyl-1-Methyl-1H-Indazol-7-yl)-1-(2-Methylpyridin-4-yl)-1H-Pyrazole-4-Sulfonamide]	
> 6.40	≥ 6.40		C=C(CO)c1ccnc(-n2cc(S(=O)(=O)Nc3c(OC)ccc4cnn(C)c34)cn2)c1 [Compound I-68, 1-(4-(3-Hydroxyprop-1-EN-2-yl)Pyridin-2-yl)-N-(6-Methoxy-1-Methyl-1H-Indazol-7-yl)-1H-Pyrazole-4-Sulfonamide]	
> 6.40	< 5.60		COc1ccc2cnn(C)c2c1NS(=O)(=O)c1cnn(-c2cc(C3(OC)CC(C)(C)C3)ccn2)c1 [Compound I-480]	
> 6.40	≥ 6.40		COc1ncc2cnn(C)c2c1NS(=O)(=O)c1cnn(-c2cc(C(C)OC)ccn2)c1 (single isomer, unassigned) [Compound I-272, N-(6-methoxy-1-methyl-1H-pyrazolo[4,3-c]pyridin-7-yl)-1-(4-(1-methoxyethyl)pyridin-2-yl)-1H-pyrazole-4-sulfonamide]	
> 6.40	< 5.60		COc1ccc2cnn(C)c2c1NS(=O)(=O)c1cnn(-c2cc(N3CC[C@@H](F)C3)ccn2)c1 [Compound I-423]	
> 6.40	< 5.60		COc1ccc2cnn(C)c2c1NS(=O)(=O)c1cnn(-c2cc(N3CC(OC)C3)ccn2)c1 [Compound I-445]	
> 6.40	< 5.60		COc1ccc2cnn(C)c2c1NS(=O)(=O)c1cnn(-c2cc(N3CCC(C)CC3)ccn2)c1 [Compound I-418]	
> 6.40	< 5.60		Cc1n[nH]c2cccc(NS(=O)(=O)c3cnn(-c4ccnc(C5CC5)c4)c3)c12 [Compound I-88, 1-(2-Cyclopropylpyridin-4-yl)-N-(3-Methyl-1H-Indazol-4-yl)-1H-Pyrazole-4-Sulfonamide]	
5.60 to 6.00	< 5.60		COC1(c2ccnc(-n3cc(S(=O)(=O)Nc4cccc5cnn(C)c45)cn3)c2)CN(C(C)=O)C1 [Compound I-254]	
> 6.40	< 5.60		C[C@@H](O)c1ccnc(-n2cc(S(=O)(=O)Nc3cccc4cnn(C)c34)cn2)c1 [Compound I-269]	

SMILES	pIC50 [1, 3]	pIC50 [2]	pIC50 ([1]; Jurkat cells, 1 hr compound pre-incubation, aCD3/aCD28/PMA stimulation 4 hr, One-Glo readout)	pIC50 ([1]; Homo sapiens, Jurkat)
CCC(F)(F)c1ccnc(-n2cc(S(=O)(=O)Nc3cccc4cnn(C)c34)cn2)c1 [Compound I-140, 1-(4-(1,1-difluoropropyl)pyridin-2-yl)-N-(1-methyl-1H-indazol-7-yl)-1H-pyrazole-4-sulfonamide]		< 5.60		> 6.40
